Results published in article PMC9611758, “Bioactive Platinum(IV) Complexes Incorporating Halogenated Phenylacetates” (Molecules, 2022).
Where “and” joins values, the source holds several entries; their conditions need not be identical. Equal entries are not always repeated. Entries after “also recorded” stand apart in the source; their conditions may differ.

Legend:
[1] = tested on: Du145 prostate; test: MTT growth inhibition assay, Du145; type: cell-based, human; settings: for GI50: MTT assay, 72 h
[2] = tested on: U87 glioblastoma; test: MTT growth inhibition assay, U87; type: cell-based, human; settings: 72 h
[3] = tested on: HT29 colon cells; test: ROS detection assay (DCFH-DA); type: cell-based, human; settings: HT29 colon cells, treated at GI50 concentration (TBHP positive control 20 μM)
From the text: Although ROS is required for cancer cell function and progression, it can induce programmed cell death or apoptosis. […] In this study, we report the ROS activity of the studied platinum(IV) complexes, 1–8, together with the individual axial ligands (4-CPA, 4-FPA, 4-BPA, and 4-IPA) in the human cancer cell line, HT29 colon (Figure 19, Table 8, and Figure S95). The ROS potential of their platinum(II) and platinum(IV) precursors in the same cell line is also presented for comparison purposes (Table 8). […] HT29 colon cells were stained by DCFH-DA and then treated with the complexes at each specific GI50 concentration. Upon ROS production, the DCFH-DA produced dichlorodihydrofluorescein, a fluorescent product. The measured fluorescence was, therefore, proportional to the produced ROS.
To investigate the presence of ROS in treated cells, a DCFDA/H2DCFDA-cellular ROS Assay Kit (Abcam, Cambridge, MA, USA) was used, as previously described. A total of 25,000 cells/mL of HT29 cells in DMEM were seeded in 96-well plates. Cells were washed with 1X kit buffer, and then stained with 25 μM 2′,7′-dichlorofluorescein diacetate (DCFH-DA) and incubated for 45 min. DCFH-DA was then removed, and cells were then re-washed with 1X kit buffer, after which phenol red free media was added. Cells were then treated with a GI50 drug concentration for each complex. The plates were directly scanned to measure fluorescence (relative fluorescence units (RFU)) at different time points using the Glo-Max®-Multimode microplate reader (Promega Corporation, Alexandra, VIC, Australia) at an excitation/emission of 485/535 nm. To generate the positive control (20 μM tert-butyl hydroperoxide (TBHP)), cells were washed with 1X kit buffer, and stained with DCFDA (25 μM) for 45 min; this was removed and TBHP was added in phenol red free media, and the resulting solution was scanned as described above.

[4] = tested on: panel of cell lines; test: MTT growth inhibition assay, whole panel of cell lines; type: cell-based, human; settings: average over the cell lines tested, MTT assay, 72 h
[5] = Reduction experiments with AsA by 1H-NMR and 1D-195Pt-NMR; type: physicochemical; settings: D2O, 37 °C; for T50% (approximate time at which 50% reduction occurs): 10 mM PBS (~7.4 pH); for extent of reduction 1 h after the final 1H-NMR experiment (1D-195Pt-NMR): regions −2800 and 400 ppm
From the text: Platinum(IV) complexes are reduced to their platinum(II) precursors by intracellular biological reducing agents such as AsA or GSH in tumour cells. However, the precise mechanism by which reduction occurs is not fully understood. In this paper, reduction reaction experiments were undertaken on the synthesised platinum(IV) complexes, 1–8, with the aid of ^1H-NMR and 1D-^195Pt-NMR spectroscopy. The method used for the reduction reaction experiments was adapted from the literature without modifications. A total of 10 mM PBS (~7.4 pH) was selected as media, and AsA was used as the biological reducing agent to investigate the reduction property of 1–8. Prior to the reduction reaction experiments, a control was prepared where each metal complex was dissolved with PBS in D2O. 1D-^195Pt-NMR was measured within the regions of −2800 and 400 ppm (30 min per region), at 37 °C. This was undertaken to confirm that the PBS would not interfere with the reduction process of the metal complexes. […] The approximate time points for the studied complexes at which an estimated 50% reduction had occurred, in the presence of AsA, as represented by T50%, are summarised in Table 6.
The reduction properties of 1–8 were monitored using ^1H-NMR and 1D-^195Pt-NMR spectroscopy on a 400 MHz Bruker (Melbourne, VIC, Australia) Avance Spectrometer. A sequence of ^1H-NMR experiments was carried out for 1 h at 37 °C, followed by 1D-^195Pt-NMR within the regions of −2800 and 400 ppm. An amount of 10 mM PBS (~7.4 pH) was transferred to a vial and reduced to dryness through rotary evaporation. AsA (~1 mg) was combined with the metal complex (~5 mg) and transferred to the vial containing the dried PBS. A total of 600 µL of D2O was then added to the vial to dissolve the complex, AsA, and the PBS together.

[6] = tested on: non-tumour derived MCF10A breast line; test: MTT growth inhibition assay, MCF10A; type: cell-based, human; settings: 72 h
[7] = tested on: A431 skin; test: MTT growth inhibition assay, A431; type: cell-based, human; settings: 72 h
[8] = tested on: A2780 ovarian; test: MTT growth inhibition assay, A2780; type: cell-based, human; settings: 72 h
[9] = tested on: SJ-G2 glioblastoma; test: MTT growth inhibition assay, SJ-G2; type: cell-based, human; settings: 72 h
[10] = tested on: BE2-C neuroblastoma; test: MTT growth inhibition assay, BE2-C; type: cell-based, human; settings: 72 h
[11] = tested on: MIA pancreas; test: MTT growth inhibition assay, MIA; type: cell-based, human; settings: 72 h
[12] = tested on: MCF-7 breast; test: MTT growth inhibition assay, MCF-7; type: cell-based, human; settings: for GI50: MTT assay, 72 h
[13] = tested on: HT29 colon; test: MTT growth inhibition assay, HT29; type: cell-based, human; settings: MTT assay, 72 h
[14] = tested on: H460 lung; test: MTT growth inhibition assay, H460; type: cell-based, human; settings: 72 h
[15] = Lipophilicity by HPLC (log kw); type: physicochemical; settings: for log kw (y-intercept of log k versus [CH3CN] % plot, Figure S80): linear fit; for log kw: chromatographic lipophilicity index, extrapolated to 100% d.i.H2O
From the text: For lipophilicity measurements, HPLC was utilised instead of the traditional shake-flask method, as described previously. Recent studies have also reported the efficiency of HPLC in measuring the lipophilicity of compounds [79, 80]. Each complex was eluted under several isocratic ratios. A standard curve was generated to calculate the log value of the capacity factor (log k) according to Equation (1). Following Equation (2), the percentage of organic solvent (CH3CN) in the mobile phase from each isocratic run was plotted against log kw (Figure S80). Log kw is the chromatographic lipophilicity index or measure of lipophilicity of the complex, so a higher value corresponds to greater lipophilicity. Because the selected axial ligands in this study contain F, Cl, Br, and I, it was only appropriate to determine the influence of the halogens on the overall lipophilicity of the platinum(IV) complexes. […] Conversely, the least lipophilic complex was the phen derivative containing 4-FPA, 3, with a log kw of 0.25. Furthermore, for the phen derivatives, the order of increasing lipophilicity was 3 > 1 > 5 > 7, which corresponds to the order of increasing size of the halogens, F > Cl > Br > I. This pattern was also observed with the 5,6-Me2phen derivatives (4 > 2 > 6 > 8), thereby confirming that the halogens increased the order of lipophilicity accordingly based on their size.
For lipophilicity measurements, analytical HPLC was utilised. Elution profiles were acquired on an Agilent (Melbourne, VIC, Australia) Technologies 1260 Infinity instrument equipped with a Phenomenex Onyx^TM Monolithic C18-reverse phase column (100 × 4.6 mm, 5 µm pore size) (Sydney, NSW, Australia). The mobile phase consisted of solvents, A (0.06% TFA in d.i.H2O) and B (0.06% TFA in CH3CN/d.i.H2O (90:10)). Potassium iodide was used as an external dead volume marker to determine the dead time of the column. Retention times (TR) were measured at varying isocratic ratios ranging from 30 to 36% of solvent B at 1 mL·min^−1 mL. An injection volume of 10 µL was utilised. Capacity factors were determined according to Equation (1):(1) k=(TR−T0)/T0 where k is the capacity factor, TR is the retention time of the analyte, and T0 represents the dead time. A minimum of four different mobile compositions were used for each complex to calculate k. A linear plot was generated of log k against the concentration of CH3CN in the mobile phase to determine the value of log kw expressed by Equation (2):(2) logk=Sφ+logkw where S is the slope, φ is the concentration of the CH3CN in the mobile phase, and log kw represents the capacity factor of the complex in 100% d.i.H2O. Extrapolation of this linear plot to the y-intercept indicates the log kw value.

[16] = tested on: ADDP-resistant ovarian variant; test: MTT growth inhibition assay, ADDP; type: cell-based, human; settings: for GI50: MTT assay, 72 h

Cc1c(C)c2c3c4c1=CC=C[N]4[Pt+2]([OH])([O]C(=O)Cc1ccc(Cl)cc1)[N]3C=CC=2.N[C@H]1CCCC[C@@H]1N [Complex 2, [Pt^IV(5,6-Me2phen)(SS-DACH)(4-CPA)(OH)]^2+]
GI50 [1]: 33 ± 21 nM | GI50 [2]: 79 ± 30 nM | ROS production 24 h [3]: 358 ± 21 RFU | ROS production 48 h [3]: 508 ± 16 RFU | ROS production 72 h [3]: 564 ± 10 RFU | GI50 [4]: 75 ± 30 nM | T50% (approximate time at which 50% reduction occurs) ([5]; 1H-NMR): 20 to 25 min | time at which reduction starts ([5]; PBS, 1H-NMR): 5 min | extent of reduction at 1 h (1H-NMR) ([5]; PBS, 1 h): almost reduced | extent of reduction 1 h after the final 1H-NMR experiment (1D-195Pt-NMR) ([5]; PBS): entirely reduce back to its platinum(II) precursor, 56MESS; also recorded: complete reduction | GI50 [6]: 35 ± 7.8 nM | GI50 [7]: 41 ± 8 nM | GI50 [8]: 43 ± 10 nM | GI50 [9]: 100 ± 45 nM | GI50 [10]: 110 ± 18 nM | GI50 [11]: 28 ± 5.5 nM | fold less potent than 56MESS [12]: ~2 fold | GI50 [12]: 180 ± 77 nM | GI50 [13]: 22 ± 9.2 nM | GI50 [14]: 200 ± 170 nM | log kw (y-intercept of log k versus [CH3CN] % plot, Figure S80) [15]: 0.9477 | GI50 [16]: 26 ± 4.5 nM

N[C@H]1CCCC[C@@H]1N.O=C([O-])Cc1ccc(F)cc1.[OH-].[Pt+4].c1cnc2c(c1)ccc1cccnc12 [Complex 3, [Pt^IV(phen)(SS-DACH)(4-FPA)(OH)]^2+]
GI50 [1]: 100 ± 17 nM | GI50 [2]: 1000 ± 150 nM | ROS production 24 h [3]: 305 ± 28 RFU | ROS production 48 h [3]: 409 ± 22 RFU | ROS production 72 h [3]: 558 ± 13 RFU | GI50 [4]: 426 ± 60 nM | T50% (approximate time at which 50% reduction occurs) ([5]; 1H-NMR): 5 to 10 min | extent of reduction 1 h after the final 1H-NMR experiment (1D-195Pt-NMR) ([5]; PBS): complete reduction | GI50 [6]: 320 ± 10 nM | GI50 [7]: 450 ± 60 nM | GI50 [8]: 340 ± 70 nM | GI50 [9]: 337 ± 60 nM | GI50 [10]: 810 ± 200 nM | GI50 [11]: 230 ± 30 nM | GI50 [12]: 740 ± 60 nM | GI50 [13]: 210 ± 30 nM | GI50 [14]: 320 ± 30 nM | log kw [15]: 0.25 | log kw (y-intercept of log k versus [CH3CN] % plot, Figure S80) [15]: 0.249 | GI50 [16]: 250 ± 10 nM

Cc1c(C)c2c3c4c1=CC=C[N]4[Pt+2]([OH])([O]C(=O)Cc1ccc(F)cc1)[N]3C=CC=2.N[C@H]1CCCC[C@@H]1N [Complex 4, [Pt^IV(5,6-Me2phen)(SS-DACH)(4-FPA)(OH)]^2+]
fold more potent than 56MESS ([1]; Du145 prostate, ratio of GI50 values): ~7 fold and 6.6 fold | GI50 [1]: 0.7 ± 0.4 nM | GI50 [2]: 37 ± 5 nM | ROS production 24 h [3]: 579 ± 18 RFU | ROS production 48 h [3]: 681 ± 17 RFU | ROS production 72 h [3]: 738 ± 15 RFU | GI50 [4]: 23 ± 4 nM | T50% (approximate time at which 50% reduction occurs) ([5]; 1H-NMR): 20 to 25 min | extent of reduction 1 h after the final 1H-NMR experiment (1D-195Pt-NMR) ([5]; PBS): partial reduction | GI50 [6]: 11 ± 3 nM | GI50 [7]: 14 ± 2 nM | GI50 [8]: 20 ± 4 nM | GI50 [9]: 30 ± 8 nM | GI50 [10]: 110 ± 20 nM | GI50 [11]: 5 ± 2 nM | GI50 [12]: 23 ± 5 nM | GI50 [13]: 6 ± 2 nM | GI50 [14]: 10 ± 3 nM | log kw [15]: 0.80 | log kw (y-intercept of log k versus [CH3CN] % plot, Figure S80) [15]: 0.8042 | fold more potent than cisplatin [16]: ~4700 fold | GI50 [16]: 6 ± 2 nM

N[C@H]1CCCC[C@@H]1N.O=C([O-])Cc1ccc(Br)cc1.[OH-].[Pt+4].c1cnc2c(c1)ccc1cccnc12 [Complex 5, [Pt^IV(phen)(SS-DACH)(4-BPA)(OH)]^2+]
GI50 [1]: 110 ± 11 nM | GI50 [2]: 1100 ± 230 nM | ROS production 24 h [3]: 281 ± 16 RFU | ROS production 48 h [3]: 399 ± 12 RFU | ROS production 72 h [3]: 478 ± 9 RFU | GI50 [4]: 457 ± 70 nM | T50% (approximate time at which 50% reduction occurs) ([5]; 1H-NMR): 15 to 20 min | extent of reduction 1 h after the final 1H-NMR experiment (1D-195Pt-NMR) ([5]; PBS): partial reduction | GI50 [6]: 320 ± 20 nM | GI50 [7]: 450 ± 10 nM | GI50 [8]: 380 ± 50 nM | GI50 [9]: 350 ± 20 nM | GI50 [10]: 960 ± 120 nM | GI50 [11]: 200 ± 20 nM | GI50 [12]: 850 ± 240 nM | GI50 [13]: 190 ± 20 nM | GI50 [14]: 320 ± 20 nM | log kw [15]: 0.87 | log kw (y-intercept of log k versus [CH3CN] % plot, Figure S80) [15]: 0.8765 | GI50 [16]: 250 ± 20 nM
